# Activity calls are given as the source filed them. The calls are words filed in the database; no cut-off is given here. Non-standard residues stand in square brackets, D forms with d. Residues, ends and D or L forms follow the SMILES beside them. ξ: configuration not given here. ξhPhe = NC(CCc1ccccc1)C(=O)O; ξ2Thi = NC(Cc1cccs1)C(=O)O; ξNle = CCCCC(N)C(=O)O
# Experiments:
# [1] = target: Glucagon-like peptide 1 receptor (Homo sapiens, UniProt P43220); assay: Agonist activity at human GLP1R expressed in HEK293 cells after 5 hrs by luciferase reporter gene assay; type: cell-based
# [2] = Systemic clearance in Sprague-Dawley rat at 0.2 mg/kg, iv through cassette dosing measured up to 300 mins by LC/MS/MS analysis; type: ADME, organism-based; details: in vivo
# [3] = Protein binding in rat plasma at 200 to 1000 ng/ml incubated for 15 mins by LC/MS/MS based ultracentrifugation method; type: ADME, cell-free; details: read-out: PPB (converted)
# [4] = target: T1, Glucagon-like peptide 2 receptor (Homo sapiens, UniProt O95838); assay: Agonist activity at human GLP2R expressed in HEK293 cells after 5 hrs by luciferase reporter gene assay; type: cell-based
# T1 sequence (O95838 whole entry): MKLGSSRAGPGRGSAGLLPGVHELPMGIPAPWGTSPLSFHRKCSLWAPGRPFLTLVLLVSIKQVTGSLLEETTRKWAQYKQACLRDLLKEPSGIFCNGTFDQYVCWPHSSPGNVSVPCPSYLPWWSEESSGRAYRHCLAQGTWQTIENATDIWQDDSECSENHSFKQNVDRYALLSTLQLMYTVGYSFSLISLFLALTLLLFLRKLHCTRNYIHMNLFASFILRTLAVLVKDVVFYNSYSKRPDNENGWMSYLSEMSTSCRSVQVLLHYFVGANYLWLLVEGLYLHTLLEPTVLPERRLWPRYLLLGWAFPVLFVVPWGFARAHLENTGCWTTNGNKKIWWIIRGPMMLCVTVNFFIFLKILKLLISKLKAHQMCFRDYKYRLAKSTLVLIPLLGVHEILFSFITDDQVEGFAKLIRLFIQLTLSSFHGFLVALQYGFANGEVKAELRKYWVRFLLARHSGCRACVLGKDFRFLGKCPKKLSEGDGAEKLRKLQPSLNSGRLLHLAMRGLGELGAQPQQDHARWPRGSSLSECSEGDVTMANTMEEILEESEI
# [5] = system: HEK293; assay: Selectivity ratio of EC50 for human GLP1R expressed in HEK293 cells to EC50 for human GLP2R expressed in HEK293; type: cell-based
# [6] = target: Glucagon receptor (Homo sapiens) (UniProt P47871); assay: Agonist activity at human GCGR expressed in HEK293 cells up to 1000 nM after 5 hrs by luciferase reporter gene assay; type: cell-based
# Chain of Glucagon receptor (Homo sapiens) (P47871 whole entry): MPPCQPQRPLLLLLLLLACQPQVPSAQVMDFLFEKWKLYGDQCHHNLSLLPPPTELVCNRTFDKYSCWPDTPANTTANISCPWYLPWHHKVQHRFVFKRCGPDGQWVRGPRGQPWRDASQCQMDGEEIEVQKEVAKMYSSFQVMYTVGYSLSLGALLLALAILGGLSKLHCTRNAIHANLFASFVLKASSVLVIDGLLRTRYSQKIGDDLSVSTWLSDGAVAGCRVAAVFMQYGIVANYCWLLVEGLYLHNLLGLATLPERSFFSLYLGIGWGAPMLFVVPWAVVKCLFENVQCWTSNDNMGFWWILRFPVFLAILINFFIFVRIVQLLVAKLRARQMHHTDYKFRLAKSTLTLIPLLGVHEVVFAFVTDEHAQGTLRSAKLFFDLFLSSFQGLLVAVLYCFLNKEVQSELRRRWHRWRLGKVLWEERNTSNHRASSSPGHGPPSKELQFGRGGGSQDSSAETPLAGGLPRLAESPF
# Chain of Glucagon-like peptide 1 receptor (P43220 whole entry): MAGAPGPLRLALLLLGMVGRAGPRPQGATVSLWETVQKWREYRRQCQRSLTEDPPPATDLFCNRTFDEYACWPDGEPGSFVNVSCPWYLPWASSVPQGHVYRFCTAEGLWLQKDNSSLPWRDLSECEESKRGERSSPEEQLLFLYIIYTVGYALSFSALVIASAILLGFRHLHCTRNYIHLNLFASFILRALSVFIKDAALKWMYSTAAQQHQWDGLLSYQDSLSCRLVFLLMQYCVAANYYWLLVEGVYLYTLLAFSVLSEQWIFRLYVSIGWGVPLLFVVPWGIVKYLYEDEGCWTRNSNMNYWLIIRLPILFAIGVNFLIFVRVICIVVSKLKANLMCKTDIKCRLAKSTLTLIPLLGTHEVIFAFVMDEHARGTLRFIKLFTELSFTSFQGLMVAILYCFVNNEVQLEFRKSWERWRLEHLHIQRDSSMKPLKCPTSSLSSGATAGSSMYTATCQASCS
EC50 [1],clearance [2],fraction unbound at 0.25 h [3],EC50 [4],Activity [6],Compound,Ratio EC50 [5]
> 1000 nM,6.1 mL/min/kg,–,0.2 nM,inactive,CCCCC(NC(=O)[C@H](CCC(=O)O)NC(=O)[C@H](CC(=O)O)NC(=O)[C@H](CO)NC(=O)[C@H](Cc1ccccc1)NC(=O)[C@H](CO)NC(=O)CNC(=O)[C@H](CC(=O)O)NC(=O)CNC(=O)[C@@H](N)Cc1cnc[nH]1)C(=O)N[C@@H](CC(N)=O)C(=O)N[C@H](C(=O)N[C@H](C(=O)N[C@@H](CC(C)C)C(=O)N[C@@H](CC(=O)O)C(=O)NC(Cc1cccs1)C(=O)N[C@@H](CC(C)C)C(=O)N[C@@H](C)C(=O)N[C@@H](C)C(=O)N[C@@H](CCCNC(=N)N)C(=O)N[C@@H](CC(=O)O)C(=O)N[C@@H](Cc1ccccc1)C(=O)N[C@H](C(=O)N[C@@H](CC(N)=O)C(=O)N[C@@H](Cc1c[nH]c2ccccc12)C(=O)N[C@@H](CC(C)C)C(=O)N[C@H](C(=O)N[C@@H](CCC(N)=O)C(=O)N[C@H](C(=O)N[C@@H](CCCCN)C(N)=O)[C@@H](C)O)[C@@H](C)CC)[C@@H](C)CC)[C@@H](C)CC)[C@@H](C)O (some centres undefined) (H-HGDGSFSDE[ξNle]NTILD[ξ2Thi]LAARDFINWLIQTK-NH2),> 5000
> 1000 nM,5.9 mL/min/kg,–,0.14 nM,inactive,CCCCC(NC(=O)[C@H](CCC(=O)O)NC(=O)[C@H](CC(=O)O)NC(=O)[C@H](CO)NC(=O)[C@H](Cc1ccccc1)NC(=O)[C@H](CO)NC(=O)CNC(=O)[C@H](CC(=O)O)NC(=O)CNC(=O)[C@@H](N)Cc1cnc[nH]1)C(=O)N[C@@H](CC(N)=O)C(=O)N[C@H](C(=O)N[C@H](C(=O)N[C@@H](CC(C)C)C(=O)N[C@@H](CC(=O)O)C(=O)N[C@@H](Cc1ccccc1)C(=O)N[C@@H](CC(C)C)C(=O)N[C@@H](C)C(=O)N[C@@H](C)C(=O)N[C@@H](CCCNC(=N)N)C(=O)N[C@@H](CC(=O)O)C(=O)N[C@@H](Cc1ccccc1)C(=O)N[C@H](C(=O)N[C@@H](CC(N)=O)C(=O)N[C@@H](Cc1c[nH]c2ccccc12)C(=O)N[C@@H](CC(C)C)C(=O)N[C@H](C(=O)N[C@@H](CCC(N)=O)C(=O)N[C@H](C(=O)N[C@@H](CCCCN)C(N)=O)[C@@H](C)O)[C@@H](C)CC)[C@@H](C)CC)[C@@H](C)CC)[C@@H](C)O (some centres undefined) (H-HGDGSFSDE[ξNle]NTILDFLAARDFINWLIQTK-NH2),> 7100
> 1000 nM,1.2 mL/min/kg,–,0.11 nM,inactive,CCCCC(NC(=O)[C@H](CCC(=O)O)NC(=O)[C@H](CC(=O)O)NC(=O)[C@H](CO)NC(=O)[C@H](Cc1ccccc1)NC(=O)[C@H](CO)NC(=O)CNC(=O)[C@H](CC(=O)O)NC(=O)CNC(=O)[C@@H](N)Cc1cnc[nH]1)C(=O)N[C@@H](CC(N)=O)C(=O)N[C@H](C(=O)N[C@H](C(=O)N[C@@H](CC(C)C)C(=O)N[C@@H](CC(=O)O)C(=O)N[C@@H](Cc1ccc(O)cc1)C(=O)N[C@@H](CC(C)C)C(=O)N[C@@H](C)C(=O)N[C@@H](C)C(=O)N[C@@H](CCCNC(=N)N)C(=O)N[C@@H](CC(=O)O)C(=O)N[C@@H](Cc1ccccc1)C(=O)N[C@H](C(=O)N[C@@H](CC(N)=O)C(=O)N[C@@H](Cc1c[nH]c2ccccc12)C(=O)N[C@@H](CC(C)C)C(=O)N[C@H](C(=O)N[C@@H](CCC(N)=O)C(=O)N[C@H](C(=O)N[C@@H](CCCCN)C(N)=O)[C@@H](C)O)[C@@H](C)CC)[C@@H](C)CC)[C@@H](C)CC)[C@@H](C)O (some centres undefined) (H-HGDGSFSDE[ξNle]NTILDYLAARDFINWLIQTK-NH2),> 9000
120 nM,–,0.039,0.09 nM,–,CCCC[C@H](NC(=O)[C@H](CCC(=O)O)NC(=O)[C@H](CC(=O)O)NC(=O)[C@H](CO)NC(=O)[C@H](Cc1ccccc1)NC(=O)[C@H](CO)NC(=O)CNC(=O)[C@H](CC(=O)O)NC(=O)CNC(=O)[C@@H](N)Cc1cnc[nH]1)C(=O)N[C@H](Cc1ccccc1)C(=O)N[C@H](C(=O)N[C@H](C(=O)N[C@@H](CC(C)C)C(=O)N[C@@H](CC(=O)O)C(=O)N[C@@H](CC(N)=O)C(=O)N[C@@H](CC(C)C)C(=O)N[C@@H](C)C(=O)N[C@@H](C)C(=O)N[C@@H](CCCNC(=N)N)C(=O)N[C@@H](CC(=O)O)C(=O)N[C@@H](Cc1ccccc1)C(=O)N[C@H](C(=O)N[C@@H](CC(N)=O)C(=O)N[C@@H](Cc1c[nH]c2ccccc12)C(=O)N[C@@H](CC(C)C)C(=O)N[C@H](C(=O)N[C@@H](CCC(N)=O)C(=O)N[C@H](C(=O)N[C@@H](CCCCN)C(N)=O)[C@@H](C)O)[C@@H](C)CC)[C@@H](C)CC)[C@@H](C)CC)[C@@H](C)O,–

# The remaining lines, values behind:
Compound,EC50 [1],clearance [2],fraction unbound at 0.25 h [3],EC50 [4],Activity [6],Ratio EC50 [5]
CC[C@H](C)[C@H](NC(=O)[C@H](Cc1ccccc1)NC(=O)[C@H](CC(=O)O)NC(=O)[C@H](CCCN=C(N)N)NC(=O)[C@H](C)NC(=O)[C@H](C)NC(=O)[C@H](CC(C)C)NC(=O)[C@H](CC(N)=O)NC(=O)[C@H](CC(=O)O)NC(=O)[C@H](CC(C)C)NC(=O)[C@@H](NC(=O)[C@@H](NC(=O)[C@H](CC(N)=O)NC(=O)[C@H](CCSC)NC(=O)[C@H](CCC(=O)O)NC(=O)[C@H](CC(=O)O)NC(=O)[C@H](CO)NC(=O)[C@H](Cc1ccccc1)NC(=O)[C@H](CO)NC(=O)CNC(=O)[C@H](CC(=O)O)NC(=O)[C@H](C)NC(=O)[C@@H](N)Cc1cnc[nH]1)[C@@H](C)O)[C@@H](C)CC)C(=O)N[C@@H](CC(N)=O)C(=O)N[C@@H](Cc1c[nH]c2ccccc12)C(=O)N[C@@H](CC(C)C)C(=O)N[C@H](C(=O)N[C@@H](CCC(N)=O)C(=O)N[C@H](C(=O)N[C@@H](CCCCN)C(=O)N[C@H](C(=O)N[C@H](C(=O)N[C@@H](CC(=O)O)C(=O)O)[C@@H](C)O)[C@@H](C)CC)[C@@H](C)O)[C@@H](C)CC,520 nM,25 mL/min/kg,0.338,–,–,–
CCCC[C@H](NC(=O)[C@H](CCC(=O)O)NC(=O)[C@H](CC(=O)O)NC(=O)[C@H](CO)NC(=O)[C@H](Cc1ccccc1)NC(=O)[C@H](CO)NC(=O)CNC(=O)[C@H](CC(=O)O)NC(=O)CNC(=O)[C@@H](N)Cc1cnc[nH]1)C(=O)N[C@H](Cc1ccccc1)C(=O)N[C@H](C(=O)N[C@H](C(=O)N[C@@H](CC(C)C)C(=O)N[C@@H](CC(=O)O)C(=O)N[C@@H](CC(C)C)C(=O)N[C@@H](CC(C)C)C(=O)N[C@@H](C)C(=O)N[C@@H](C)C(=O)N[C@@H](CCCNC(=N)N)C(=O)N[C@@H](CC(=O)O)C(=O)N[C@@H](Cc1ccccc1)C(=O)N[C@H](C(=O)N[C@@H](CC(N)=O)C(=O)N[C@@H](Cc1c[nH]c2ccccc12)C(=O)N[C@@H](CC(C)C)C(=O)N[C@H](C(=O)N[C@@H](CCC(N)=O)C(=O)N[C@H](C(=O)N[C@@H](CCCCN)C(N)=O)[C@@H](C)O)[C@@H](C)CC)[C@@H](C)CC)[C@@H](C)CC)[C@@H](C)O,> 1000 nM,–,0.024,0.08 nM,–,–
CCCCC(NC(=O)[C@H](CCC(=O)O)NC(=O)[C@H](CC(=O)O)NC(=O)[C@H](CO)NC(=O)[C@H](Cc1ccccc1)NC(=O)[C@H](CO)NC(=O)CNC(=O)[C@H](CC(=O)O)NC(=O)CNC(=O)[C@@H](N)Cc1cnc[nH]1)C(=O)N[C@@H](CC(N)=O)C(=O)N[C@H](C(=O)N[C@H](C(=O)N[C@@H](CC(C)C)C(=O)N[C@@H](CC(=O)O)C(=O)NC(CCc1ccccc1)C(=O)N[C@@H](CC(C)C)C(=O)N[C@@H](C)C(=O)N[C@@H](C)C(=O)N[C@@H](CCCNC(=N)N)C(=O)N[C@@H](CC(=O)O)C(=O)N[C@@H](Cc1ccccc1)C(=O)N[C@H](C(=O)N[C@@H](CC(N)=O)C(=O)N[C@@H](Cc1c[nH]c2ccccc12)C(=O)N[C@@H](CC(C)C)C(=O)N[C@H](C(=O)N[C@@H](CCC(N)=O)C(=O)N[C@H](C(=O)N[C@@H](CCCCN)C(N)=O)[C@@H](C)O)[C@@H](C)CC)[C@@H](C)CC)[C@@H](C)CC)[C@@H](C)O (some centres undefined) (H-HGDGSFSDE[ξNle]NTILD[ξhPhe]LAARDFINWLIQTK-NH2),> 1000 nM,0.44 mL/min/kg,–,0.11 nM,inactive,> 9000
CCCCC(NC(=O)[C@H](CCC(=O)O)NC(=O)[C@H](CC(=O)O)NC(=O)[C@H](CO)NC(=O)[C@H](Cc1ccccc1)NC(=O)[C@H](CO)NC(=O)CNC(=O)[C@H](CC(=O)O)NC(=O)CNC(=O)[C@@H](N)Cc1cnc[nH]1)C(=O)N[C@@H](CC(N)=O)C(=O)N[C@H](C(=O)N[C@H](C(=O)N[C@@H](CC(C)C)C(=O)N[C@@H](CC(=O)O)C(=O)N[C@@H](Cc1c[nH]c2ccccc12)C(=O)N[C@@H](CC(C)C)C(=O)N[C@@H](C)C(=O)N[C@@H](C)C(=O)N[C@@H](CCCNC(=N)N)C(=O)N[C@@H](CC(=O)O)C(=O)N[C@@H](Cc1ccccc1)C(=O)N[C@H](C(=O)N[C@@H](CC(N)=O)C(=O)N[C@@H](Cc1c[nH]c2ccccc12)C(=O)N[C@@H](CC(C)C)C(=O)N[C@H](C(=O)N[C@@H](CCC(N)=O)C(=O)N[C@H](C(=O)N[C@@H](CCCCN)C(N)=O)[C@@H](C)O)[C@@H](C)CC)[C@@H](C)CC)[C@@H](C)CC)[C@@H](C)O (some centres undefined) (H-HGDGSFSDE[ξNle]NTILDWLAARDFINWLIQTK-NH2),> 1000 nM,0.5 mL/min/kg,–,0.15 nM,inactive,> 6600

# Reference: ChEMBL document CHEMBL3822442, “Synthesis and Pharmacological Characterization of Novel Glucagon-like Peptide-2 (GLP-2) Analogues with Low Systemic Clearance” (J Med Chem, 2016)
